Measurements reported in US9040530B2, “1,2,4-triazine-6-carboxamide kinase inhibitors” (Portola Pharmaceuticals, Inc., priority 2012, dated 2015).

Biological target: T1, full length active recombinant SYK enzyme (Homo sapiens, UniProt P43405)
T1 construct: full length active recombinant SYK enzyme (Millipore, Calif.); purchased Millipore
Experiment: Inhibition of Syk tyrosine phosphorylation activity (LANCE TR-FRET kinase assay)
Assay type: biochemical
Conditions: 1 nM active SYK enzyme, 550 nM SYK-substrate, 100 μM ATP, 1 hour at room temperature

| IC50 [nM] | SMILES |
| --- | --- |
| 10 to 100 | CC[C@@H](Nc1nnc(C(N)=O)c(Nc2cnc3ccccc3c2)n1)C(N)=O [Example 59, (R)-3-((1-amino-1-oxobutan-2-yl)amino)-5-(quinolin-3-ylamino)-1,2,4-triazine-6-carboxamide] |
| 10 to 100 | C[N+]1([O-])CCC(c2ccc(Nc3nc(N[C@@H]4CCCC[C@@H]4N)nnc3C(N)=O)cc2)CC1 (stereo partly drawn) [Example 29, 4-(4-((3-(((1R,2S)-2-aminocyclohexyl)amino)-6-carbamoyl-1,2,4-triazin-5-yl)amino)phenyl)-1-methylpiperidine 1-oxide] |
| 10 to 100 | NC(=O)c1nnc(N[C@@H]2CCOC[C@@H]2N)nc1Nc1cccc(C(F)(F)F)c1 [Example 251, 3-(((3R,4R)-3-aminotetrahydro-2H-pyran-4-yl)amino)-5-((3-(trifluoromethyl)phenyl)amino)-1,2,4-triazine-6-carboxamide] |
| 10 to 100 | N#Cc1ccc(Nc2nc(N[C@@H]3CCCC[C@@H]3N)nnc2C(N)=O)cc1 [Example 75, 3-(((1R,2S)-2-aminocyclohexyl)amino)-5-((4-cyanophenyl)amino)-1,2,4-triazine-6-carboxamide] |
| 1 to 10 | CC[C@@H](Nc1nnc(C(N)=O)c(Nc2ccc3cn(C)nc3c2)n1)C(N)=O [Example 179, (R)-3-((1-amino-1-oxobutan-2-yl)amino)-5-((2-methyl-2H-indazol-6-yl)amino)-1,2,4-triazine-6-carboxamide] |
| 10 to 100 | NC(=O)c1nnc(N[C@@H]2CCOC[C@@H]2N)nc1Nc1ccc(Cl)c(Cl)c1 [Example 244, 3-(((3R,4R)-3-aminotetrahydro-2H-pyran-4-yl)amino)-5-((3,4-dichlorophenyl)amino)-1,2,4-triazine-6-carboxamide] |
| 10 to 100 | NC(=O)c1nnc(N[C@H](CC2CC2)C(N)=O)nc1Nc1ccc(Cl)c(Cl)c1 [Example 254, (R)-3-((1-amino-3-cyclopropyl-1-oxopropan-2-yl)amino)-5-((3,4-dichlorophenyl)amino)-1,2,4-triazine-6-carboxamide] |
| 100 to 1000 | N#Cc1ccc(Nc2nc(N[C@@H]3CCOC[C@@H]3N)nnc2C(N)=O)cc1 [Example 76, 3-(((3R,4R)-3-aminotetrahydro-2H-pyran-4-yl)amino)-5-((4-cyanophenyl)amino)-1,2,4-triazine-6-carboxamide] |
| 10 to 100 | Cc1ccc(Nc2nc(N[C@H](Cc3cccc(F)c3)C(N)=O)nnc2C(N)=O)cc1 [Example 190, (R)-3-(1-amino-3-(3-fluorophenyl)-1-oxopropan-2-ylamino)-5-(p-tolylamino)-1,2,4-triazine-6-carboxamide] |
| 10 to 100 | CC(C)C[C@@H](Nc1nnc(C(N)=O)c(Nc2ccc(Cl)c(Cl)c2)n1)C(N)=O [Example 255, (R)-3-((1-amino-4-methyl-1-oxopentan-2-yl)amino)-5-((3,4-dichlorophenyl)amino)-1,2,4-triazine-6-carboxamide] |
| 10 to 100 | NC(=O)c1nnc(N[C@@H]2CCCC(F)(F)[C@@H]2N)nc1Nc1ccc(C(F)(F)F)cc1 [Example 239, 3-(((1R,2R)-2-amino-3,3-difluorocyclohexyl)amino)-5-((4-(trifluoromethyl)phenyl)amino)-1,2,4-triazine-6-carboxamide] |
| 1 to 10 | CCC(=O)N1CCC(c2ccc(Nc3nc(N[C@@H]4CCCC[C@@H]4N)nnc3C(N)=O)cc2)CC1 [Example 28, 3-(((1R,2S)-2-aminocyclohexyl)amino)-5-((4-(1-propionylpiperidin-4-yl)phenyl)amino)-1,2,4-triazine-6-carboxamide] |
| 100 to 1000 | Cc1ccc(Nc2nc(N[C@@H](C(N)=O)c3ccccc3)nnc2C(N)=O)cc1 [Example 191, (R)-3-(2-amino-2-oxo-1-phenylethylamino)-5-(p-tolylamino)-1,2,4-triazine-6-carboxamide] |
| 1 to 10 | Cn1ccc2ccc(Nc3nc(N[C@@H]4CCCC[C@@H]4N)nnc3C(N)=O)cc21 [Example 119, 3-(((1R,2S)-2-aminocyclohexyl)amino)-5-((1-methyl-1H-indol-6-yl)amino)-1,2,4-triazine-6-carboxamide] |
| 1 to 10 | CC(C)C[C@@H](Nc1nnc(C(N)=O)c(Nc2ccc3c(cnn3C)c2)n1)C(N)=O [Example 111, (R)-3-((1-amino-4-methyl-1-oxopentan-2-yl)amino)-5-((1-methyl-1H-indazol-5-yl)amino)-1,2,4-triazine-6-carboxamide] |
| 10 to 100 | NC(=O)c1nnc(N[C@@H]2CCCC[C@@H]2N)nc1Nc1ccc(F)c(F)c1 [Example 18, 3-(((1R,2S)-2-aminocyclohexyl)amino)-5-((3,4-difluorophenyl)amino)-1,2,4-triazine-6-carboxamide] |
| > 1000 | NC(=O)c1nnc(N)nc1Nc1cccc(-c2ncccn2)c1 [Example 92, 3-amino-5-((3-(pyrimidin-2-yl)phenyl)amino)-1,2,4-triazine-6-carboxamide] |
| 10 to 100 | CC(C)C[C@@H](Nc1nnc(C(N)=O)c(Nc2cccc(-c3ncccn3)c2)n1)C(N)=O [Example 77, (R)-3-((1-amino-4-methyl-1-oxopentan-2-yl)amino)-5-((3-(pyrimidin-2-yl)phenyl)amino)-1,2,4-triazine-6-carboxamide] |
| 10 to 100 | NC(=O)c1nnc(N[C@@H]2CCOC[C@@H]2N)nc1Nc1ccc(-c2ncco2)cc1 [Example 253, 3-(((3R,4R)-3-aminotetrahydro-2H-pyran-4-yl)amino)-5-((4-(oxazol-2-yl)phenyl)amino)-1,2,4-triazine-6-carboxamide] |
| 100 to 1000 | CC[C@@H](Nc1nnc(C(N)=O)c(Nc2cccc(-n3nccn3)c2)n1)C(N)=O [Example 86, (R)-5-((3-(2H-1,2,3-triazol-2-yl)phenyl)amino)-3-((1-amino-1-oxobutan-2-yl)amino)-1,2,4-triazine-6-carboxamide] |
| 100 to 1000 | CC[C@@H](Nc1nnc(C(N)=O)c(Nc2cccc(-c3ncccn3)c2)n1)C(N)=O [Example 84, (R)-3-((1-amino-1-oxobutan-2-yl)amino)-5-((3-(pyrimidin-2-yl)phenyl)amino)-1,2,4-triazine-6-carboxamide] |
| 100 to 1000 | Cn1ccc2c(Nc3nc(N[C@@H](C(N)=O)C(C)(C)C)nnc3C(N)=O)cccc21 [Example 93, (R)-3-((1-amino-3,3-dimethyl-1-oxobutan-2-yl)amino)-5-((1-methyl-1H-indol-4-yl)amino)-1,2,4-triazine-6-carboxamide] |
| 1 to 10 | N#Cc1cccc(Nc2nc(N[C@@H]3CCCC[C@@H]3N)nnc2C(N)=O)c1 [Example 72, 3-(((1R,2S)-2-aminocyclohexyl)amino)-5-((3-cyanophenyl)amino)-1,2,4-triazine-6-carboxamide] |
| 1 to 10 | NC(=O)c1nnc(N[C@@H]2CCCC[C@@H]2N)nc1Nc1cc(F)cc(Cl)c1 [Example 21, 3-(((1R,2S)-2-aminocyclohexyl)amino)-5-((3-chloro-5-fluorophenyl)amino)-1,2,4-triazine-6-carboxamide] |
| 1 to 10 | NC(=O)c1nnc(N[C@@H]2CCCC[C@@H]2N)nc1Nc1cnc2ccccc2c1 [Example 58, 3-(((1R,2S)-2-aminocyclohexyl)amino)-5-(quinolin-3-ylamino)-1,2,4-triazine-6-carboxamide] |
